# Where no end group is shown, it is not given here. The star is where a group is joined. Octanoyl = CCCCCCCC(=O)*
# Experiments:
# serum endotoxin = assay: Serum endotoxin levels (LAL assay); format: in vivo; conditions: Day 7 after 10 Gy WBI; 20 nmol/rat for 6 days from 24 h
# Procedure: (§1) Animal model of whole body irradiation. Rats were exposed to whole body irradiation (WBI) of 10 Gray (Gy) using a Gammacell® 1000 Irradiator (Atomic Energy of Canada Ltd) [radiation source: Cesium-137 (^137Cs)] delivered at a dose rate of about 2.5 GY/min. The animals were sedated with intra-peritoneal pentobarbital (40 mg/kg BW) prior to irradiation. During radiation, the container rotated continuously in front of the radiation source for even exposure. The animals were then returned to their cages, and food and water were provided.
# Blood and Tissue Collection after WBI. Rats exposed to 10 Gy WBI were treated with 20 nmol/rat human ghrelin once a day for 6 days starting at 24 h after radiation. At the 7th day, rats were euthanized, and blood, liver and the small intestine were removed under sterile conditions. The blood was allowed to clot and following centrifugation, the serum was transferred into pyrogenic free sterile tubes, and stored at −80° C. until further analysis. […]
# Serum endotoxin levels. Bacterial endotoxin levels in the serum were determined by the endpoint Chromogenic Limulus Amebocyte Lysate (LAL) assay (QC-1000, Lonza, Walkervilles, Md. USA) and expressed in EU/ml. Samples were analyzed according to manufacturer's instruction. Endotoxin levels which are ≥0.1EU/ml can be measured using this assay.
# Bcl-xl = assay: Western blot of jejunal Bcl-xl protein; format: in vivo, rat; conditions: jejunum, Day 7 after 10 Gy WBI
# Procedure: as §1
# Blood and Tissue Collection after WBI. Rats exposed to 10 Gy WBI were treated with 20 nmol/rat human ghrelin once a day for 6 days starting at 24 h after radiation. At the 7th day, rats were euthanized, and blood, liver and the small intestine were removed under sterile conditions. […]
# Western blot analysis. […] After overnight incubation with the primary antibodies at 4° C., the membranes were washed with TBS-T Immunoreactive bands were detected using HRP-linked secondary antibody (Southern Biotech, Birmingham, Ala.) and the Enhanced Chemiluminescence (ECL) Western blot detection kit (Amersham, Piscataway, N.J.). The immunoblots were exposed to X-ray film and analyzed with the NIH Image J analysis system. […]
# rat ileum = assay: Gut permeability, ex-vivo isolated everted ileal sac (FD4 clearance); format: in vivo; conditions: Day 7 after 10 Gy WBI, 20 nmol/rat for 6 days from 24 h
# Procedure: as §1
# (§2) Blood and Tissue Collection after WBI. Rats exposed to 10 Gy WBI were treated with 20 nmol/rat human ghrelin once a day for 6 days starting at 24 h after radiation. […]
# Gut Permeability. Small intestinal mucosal barrier function was assessed by using the ex-vivo isolated everted ileal sac as originally described by Wattanasirichaigoon et al. in 1999 [26] and used by others. […] The length and the diameter of the gut sac were then measured. […] Fluorescence measurements were made with a CYTOFLUOR 2 fluorescence plate reader (PerSeptive Biosystems, Framingham, Mass.) at an excitation wavelength of 480 nm and an emission wavelength of 520 nm. Gut permeability was expressed as the mucosal-to-serosal clearance of FD4 as described in detail by Wattanasirichaigoon et al.. […]
# Liver 16S rRNA = assay: Bacterial translocation, liver 16S rRNA real time PCR; format: in vivo; conditions: Day 7 after 10 Gy WBI; 20 nmol/rat for 6 days from 24 h
# Procedure: as §1, §2
# DNA isolation and total bacteria quantification. […] Bacterial quantification was performed using 16S rRNA gene-targeted primer, forward: 5′-AAC GCG AAG AAC CTT AC-3′ (SEQ ID NO:2) and reverse: 5′-CGG TGT GTA CAA GAC CC-3′ (SEQ ID NO:3). […] The PCR conditions for total bacterial quantification were 95° C. for 1 min and 40 cycles of 95° C. for 20 sec and 60° C. for 1 min. […] Serially diluted genomic DNA of bacterial isolates was used as real time PCR control for bacterial quantification. A standard curve was generated from the bacterial DNA control and we consistently detected between 100 ng to 0.1 pg E. coli DNA. Bacterial counts were expressed as ng/mg liver tissue.
substance,measurement,setting,value
ghrelin (GSS(Octanoyl)FLSPEHQRVQQRKESKKPPAKLQPR; listed as Homo sapiens) [human ghrelin],"serum endotoxin levels, decrease",serum endotoxin,42%
same,"Bcl-xl protein levels, restored by",Bcl-xl; vehicle 34% reduction,75%
same,"Bcl-xl/Bax ratio, increase from the vehicle",Bcl-xl; vehicle 54% reduction,55%
same,"gut permeability, reduction from Vehicle",rat ileum,38%
same,"liver 16S rRNA gene (bacterial counts), reduction from Vehicle",Liver 16S rRNA,61%

# — patent US10265383B2, “Treatment of radiation injury using ghrelin” (priority 2014, dated 2019)
